Measured values as given in patent publication US20240327364A1, “THERAPEUTIC TARGETING OF GPR68 TO INDUCE FERROPTOSIS” (University Of Maryland, Baltimore, priority 2023, published 2024).

Columns and labels:
[1] = target: T1, ABL1(H396P)-phosphorylated (Homo sapiens, UniProt P00519, H396P); assay: KinomeScan; assay type: binding; details: read-out: % Control
T1 construct: purchased DiscoveRx

[2] = target: T2, ABL1(Q252H)-nonphosphorylated (Homo sapiens, UniProt P00519, Q252H); assay: KinomeScan; assay type: binding; details: read-out: % Control
T2 construct: purchased DiscoveRx

BIKE = target: T3, BIKE (Homo sapiens, UniProt Q9NSY1); assay: KinomeScan; assay type: binding; details: read-out: % Control
T3 construct: purchased DiscoveRx (Fremont, CA)

CAMKK1 = target: T4, CAMKK1 (Homo sapiens, UniProt Q8N5S9); assay: KinomeScan; assay type: binding; details: read-out: % Control
T4 construct: purchased DiscoveRx (KinomeScan service)

CDK3 = target: T5, CDK3 (Homo sapiens, UniProt Q00526); assay: KinomeScan; assay type: binding; details: read-out: % Control
T5 construct: purchased DiscoveRx (KinomeScan service)

CSNK1G3 = CSNK1G3 (Homo sapiens, UniProt Q9Y6M4); assay: KinomeScan; assay type: binding; details: read-out: % Control
DAPK3 = target: T6, DAPK3 (Homo sapiens, UniProt O43293); assay: KinomeScan; assay type: binding; details: read-out: % Control
T6 construct: purchased DiscoveRx (Fremont, CA), KinomeScan service

DMPK2 = target: T7, DMPK2 (Homo sapiens, UniProt Q6DT37); assay: KinomeScan; assay type: binding; details: read-out: % Control
T7 construct: purchased DiscoveRx (Fremont, CA), KinomeScan service

FLT3(D835H) = target: T8, FLT3(D835H) (Homo sapiens, UniProt P36888, D835H); assay: KinomeScan; assay type: binding; details: read-out: % Control
T8 construct: purchased DiscoveRx (Fremont, CA)

KIT(A829P) = target: T9, KIT(A829P) (Homo sapiens, UniProt P10721, A829P); assay: KinomeScan; assay type: binding; details: read-out: % Control
T9 construct: purchased DiscoveRx

MEK1 = target: T10, MEK1 (Homo sapiens, UniProt Q02750); assay: KinomeScan; assay type: binding; details: read-out: % Control
T10 construct: purchased DiscoveRx (Fremont, CA)

MEK5 = target: T11, MEK5 (Homo sapiens, UniProt Q13163); assay: KinomeScan; assay type: binding; details: read-out: % Control
T11 construct: purchased DiscoveRx (Fremont, CA)

PKAC-beta = target: T12, PKAC-beta (Homo sapiens, UniProt P22694); assay: KinomeScan; assay type: binding; details: read-out: % Control
T12 construct: purchased DiscoveRx (Fremont, CA)

SRC = target: T13, SRC (Homo sapiens, UniProt P12931); assay: KinomeScan; assay type: binding; details: read-out: % Control
T13 construct: purchased DiscoveRx (Fremont, CA)

APJ = target: T14, APJ (Homo sapiens, UniProt P35414); assay: GPCR Profiler; assay type: cell-based
T14 construct: host or cells: Chem-1 cells with promiscuous Gα15

S1P3 = target: T15, S1P3 (Homo sapiens, UniProt Q99500); assay: GPCR Profiler; assay type: cell-based
T15 construct: host or cells: Chem-1 cells with Gα15

GPR4 = target: T16, GPR4 (Homo sapiens, UniProt P46093); assay: SRE-luciferase assay, GPR4-transfected HEK293 cells; assay type: cell-based; details: OGM2 at 1, 10, or 100 μM
T16 construct: expressed in transfected cells
Protocol: 12-well plates of cells were transfected with 1 μg DNA using Lipofectamine 3000 with sre:luciferase and either the vector backbone, GFP, GPR68, GPR68-GFP, GPR4, or 336X-GFP. After 3 days, these cells were then lysed, and cell extracts were subjected to Steady-Glo luciferase assay (Promega™) according to the manufacturer's instructions. The results were normalized to cell titer, as determined using Cell Titer-Glo luminescence assay (Promega™). For some procedure, the cells were treated in serum-free medium, and were lysed on the third day.
Because GPR4, the paralog with highest homology with GPR68, was not covered in the initial GPCR profiling, whether OGM2 could inhibit GPR4 was tested by examining the effects of OGM2 on acid-induced serum responsive element (SRE) luciferase activity in HEK293 cells transfected with either GPR4 or GPR68. Mild acidification increased luciferase activity in GPR4 and GPR68 transfected cells above that of vector control.
Cas9^GPR68=GPR68 targeted sgRNA and Cas9; CTL=control; MoGPR68=GPR68 morpholino treatment. […] These cells were exposed to acidic media and assayed for luciferase activity as a readout of the receptor activity.

HEK293 = assay: Liperfluo lipid peroxidation, HEK293; assay type: cell-based, human
Protocol: Cells were plated on a 100 mm cell culture dish (CELLTREAT Scientific Products) in 10 mls of DMEM with high glucose, GlutaMAX, HEPES, Penicillin-Streptomycin (ThermoFisher™) and 10% FBS. Cells were incubated overnight at 37° C. in 5% CO2. Media were then replaced with […] fresh media with DMSO, OGM2, or Erastin (APExBIO Technology™) and the cells incubated for 3 days. On the third day, 3 mL fresh media with 2.5 μM Liperfluo™ (Dojindo Molecular Technologies™, Inc.) resuspended in DMSO was added and cells were incubated at 37° C. in 5% CO2 for 1 hour. Cells were subsequently trypsinized for 5 minutes, pelleted by centrifugation, and resuspended in cell sorting media (1% BSA and 1 mM EDTA in PBS pH 7.4). Ten thousand events were recorded on a BD LSR II and the data processed using the FlowJo™ software.

WM115 = assay: Agarose drop assay; assay type: cell-based, human; details: OGM2 5 μM, 5 days
Protocol: WM115 cells were trypsinized and resuspended at 100,000 cells per mL in low melt agarose. A 10 μl drop of the cell mixture was added to 12-well plate. After solidifying Normal culture media was added with either DMSO 0.5% or OGM2 5 μM. The area around the agarose drop was visualized manually with light microscopy. The cells were incubated for 5 days and visualized. Cells outside of the agarose drop were visualized and quantitated.
FIG. 12A is a schematic of the agarose drop assay. WM115 cells were mixed into a low melt agarose solution and single 10 μL drops were seeded onto cell culture plates. After solidifying, media containing OGM2 (5 μM) or CTL (DMSO […]) was added and wells were observed 5 days later. Immediately after media addition no cells are on the plate outside of the agarose gel in CTL or OGM2. Five days after seeding cells are observed outside of the gel (Black arrows) in CTL but not in OGM2. […] Quantification on the number of cells that escaped from an average of 5 gel drop replicates. FIG. 12B through FIG. 12D show the cells after media addition. No cells are on the plate outside of the agarose gel in CTL or OGM2. Five days after seeding, cells are observed outside of the gel (arrows) in CTL but not in OGM2.

U87 = assay: MitoTracker / TMRM staining; assay type: cell-based, human
From the text: Lipid peroxidation associated with ferroptosis is known to disrupt mitochondrial membranes, resulting in smaller mitochondria.

T14 sequence (P35414 whole entry, species assumed): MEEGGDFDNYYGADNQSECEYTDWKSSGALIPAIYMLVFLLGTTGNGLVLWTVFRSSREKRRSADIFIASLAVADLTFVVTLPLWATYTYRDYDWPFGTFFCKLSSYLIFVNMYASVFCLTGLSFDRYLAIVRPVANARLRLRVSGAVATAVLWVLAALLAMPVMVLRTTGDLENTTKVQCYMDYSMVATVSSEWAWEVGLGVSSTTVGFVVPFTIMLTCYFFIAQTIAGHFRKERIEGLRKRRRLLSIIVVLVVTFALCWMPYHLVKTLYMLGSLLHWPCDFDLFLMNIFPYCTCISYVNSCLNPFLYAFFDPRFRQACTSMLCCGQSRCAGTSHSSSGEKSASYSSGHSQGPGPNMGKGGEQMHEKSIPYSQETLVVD
T15 sequence (Q99500 whole entry, species assumed): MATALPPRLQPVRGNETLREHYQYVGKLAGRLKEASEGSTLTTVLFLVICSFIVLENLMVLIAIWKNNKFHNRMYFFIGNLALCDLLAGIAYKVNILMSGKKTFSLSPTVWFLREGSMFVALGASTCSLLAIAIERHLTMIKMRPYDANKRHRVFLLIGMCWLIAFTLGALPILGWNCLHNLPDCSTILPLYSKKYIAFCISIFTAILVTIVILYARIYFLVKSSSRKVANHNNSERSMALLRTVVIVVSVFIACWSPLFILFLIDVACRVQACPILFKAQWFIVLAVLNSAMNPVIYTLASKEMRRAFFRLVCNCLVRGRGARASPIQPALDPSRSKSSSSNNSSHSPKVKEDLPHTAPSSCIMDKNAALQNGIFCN
T5 sequence (Q00526 whole entry): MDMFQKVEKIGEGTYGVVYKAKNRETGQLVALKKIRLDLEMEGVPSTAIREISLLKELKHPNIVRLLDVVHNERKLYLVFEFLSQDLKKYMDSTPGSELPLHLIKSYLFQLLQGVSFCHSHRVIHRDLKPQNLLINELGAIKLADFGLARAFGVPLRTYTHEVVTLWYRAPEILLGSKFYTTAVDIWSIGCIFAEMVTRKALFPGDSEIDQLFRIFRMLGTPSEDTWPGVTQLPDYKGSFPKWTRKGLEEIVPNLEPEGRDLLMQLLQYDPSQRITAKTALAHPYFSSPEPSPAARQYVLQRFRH
Sequence of CSNK1G3 (Q9Y6M4 whole entry): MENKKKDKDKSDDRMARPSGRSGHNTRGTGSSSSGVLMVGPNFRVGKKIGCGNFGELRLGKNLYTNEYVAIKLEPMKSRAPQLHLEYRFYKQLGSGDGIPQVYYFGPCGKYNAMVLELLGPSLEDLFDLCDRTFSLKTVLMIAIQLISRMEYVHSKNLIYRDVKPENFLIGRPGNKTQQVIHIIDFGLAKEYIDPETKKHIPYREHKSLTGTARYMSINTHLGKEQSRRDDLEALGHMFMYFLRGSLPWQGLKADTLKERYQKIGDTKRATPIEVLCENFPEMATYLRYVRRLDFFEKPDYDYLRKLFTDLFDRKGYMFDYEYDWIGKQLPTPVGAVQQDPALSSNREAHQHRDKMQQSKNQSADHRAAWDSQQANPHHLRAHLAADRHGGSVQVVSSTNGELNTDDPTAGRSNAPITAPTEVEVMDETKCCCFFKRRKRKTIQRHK
T3 sequence (Q9NSY1 whole entry): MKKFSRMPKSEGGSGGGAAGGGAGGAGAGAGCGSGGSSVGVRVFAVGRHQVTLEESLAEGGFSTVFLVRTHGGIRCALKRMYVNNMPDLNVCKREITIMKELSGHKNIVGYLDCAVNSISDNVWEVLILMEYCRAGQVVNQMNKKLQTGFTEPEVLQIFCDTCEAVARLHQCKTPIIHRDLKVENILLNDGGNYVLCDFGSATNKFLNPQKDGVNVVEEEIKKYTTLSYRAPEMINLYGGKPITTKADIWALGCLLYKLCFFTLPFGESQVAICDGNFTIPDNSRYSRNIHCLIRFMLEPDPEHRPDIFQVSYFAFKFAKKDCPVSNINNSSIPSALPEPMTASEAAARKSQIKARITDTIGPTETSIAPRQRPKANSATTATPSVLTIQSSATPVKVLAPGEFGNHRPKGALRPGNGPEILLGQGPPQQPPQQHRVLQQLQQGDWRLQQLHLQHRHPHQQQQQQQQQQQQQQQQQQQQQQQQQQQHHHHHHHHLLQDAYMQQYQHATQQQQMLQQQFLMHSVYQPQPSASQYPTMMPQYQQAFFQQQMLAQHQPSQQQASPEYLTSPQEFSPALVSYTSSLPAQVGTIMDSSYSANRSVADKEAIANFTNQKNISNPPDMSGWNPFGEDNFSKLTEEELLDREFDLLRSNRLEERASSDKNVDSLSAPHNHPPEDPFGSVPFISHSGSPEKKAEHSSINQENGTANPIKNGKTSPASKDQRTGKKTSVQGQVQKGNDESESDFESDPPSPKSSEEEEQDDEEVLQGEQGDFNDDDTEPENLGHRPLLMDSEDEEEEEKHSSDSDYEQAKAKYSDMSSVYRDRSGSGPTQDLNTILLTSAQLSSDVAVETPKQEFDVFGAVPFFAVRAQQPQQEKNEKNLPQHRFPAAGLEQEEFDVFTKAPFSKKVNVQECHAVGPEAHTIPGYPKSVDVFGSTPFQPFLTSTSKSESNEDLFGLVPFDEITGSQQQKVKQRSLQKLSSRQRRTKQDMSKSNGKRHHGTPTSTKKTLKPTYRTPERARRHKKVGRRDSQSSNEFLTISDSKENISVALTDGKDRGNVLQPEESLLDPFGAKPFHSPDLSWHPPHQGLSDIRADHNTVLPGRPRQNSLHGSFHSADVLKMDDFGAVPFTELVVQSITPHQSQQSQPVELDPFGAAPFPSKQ
T11 sequence (Q13163 whole entry): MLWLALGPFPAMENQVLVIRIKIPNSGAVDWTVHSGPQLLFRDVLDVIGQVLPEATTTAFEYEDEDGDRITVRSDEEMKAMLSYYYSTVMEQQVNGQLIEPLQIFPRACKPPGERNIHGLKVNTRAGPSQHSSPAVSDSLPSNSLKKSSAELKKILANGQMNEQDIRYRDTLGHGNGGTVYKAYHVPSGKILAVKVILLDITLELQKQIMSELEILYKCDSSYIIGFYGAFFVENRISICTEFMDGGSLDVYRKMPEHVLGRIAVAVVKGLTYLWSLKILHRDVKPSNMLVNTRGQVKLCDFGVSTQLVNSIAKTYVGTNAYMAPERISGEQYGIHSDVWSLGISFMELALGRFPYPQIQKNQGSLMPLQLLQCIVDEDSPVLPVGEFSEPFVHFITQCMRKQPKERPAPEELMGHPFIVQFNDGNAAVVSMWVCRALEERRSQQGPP
T10 sequence (Q02750 whole entry): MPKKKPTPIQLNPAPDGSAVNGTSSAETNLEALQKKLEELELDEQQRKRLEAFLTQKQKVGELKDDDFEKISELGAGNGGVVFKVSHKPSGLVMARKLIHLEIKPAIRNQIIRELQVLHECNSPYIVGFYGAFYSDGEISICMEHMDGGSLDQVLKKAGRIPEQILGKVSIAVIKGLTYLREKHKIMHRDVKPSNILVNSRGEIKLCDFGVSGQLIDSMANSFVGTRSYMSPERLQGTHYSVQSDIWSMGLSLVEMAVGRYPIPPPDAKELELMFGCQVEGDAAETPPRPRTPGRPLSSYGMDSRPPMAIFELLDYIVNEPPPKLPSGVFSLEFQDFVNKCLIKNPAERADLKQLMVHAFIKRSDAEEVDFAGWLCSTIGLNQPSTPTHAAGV
T13 sequence (P12931 whole entry): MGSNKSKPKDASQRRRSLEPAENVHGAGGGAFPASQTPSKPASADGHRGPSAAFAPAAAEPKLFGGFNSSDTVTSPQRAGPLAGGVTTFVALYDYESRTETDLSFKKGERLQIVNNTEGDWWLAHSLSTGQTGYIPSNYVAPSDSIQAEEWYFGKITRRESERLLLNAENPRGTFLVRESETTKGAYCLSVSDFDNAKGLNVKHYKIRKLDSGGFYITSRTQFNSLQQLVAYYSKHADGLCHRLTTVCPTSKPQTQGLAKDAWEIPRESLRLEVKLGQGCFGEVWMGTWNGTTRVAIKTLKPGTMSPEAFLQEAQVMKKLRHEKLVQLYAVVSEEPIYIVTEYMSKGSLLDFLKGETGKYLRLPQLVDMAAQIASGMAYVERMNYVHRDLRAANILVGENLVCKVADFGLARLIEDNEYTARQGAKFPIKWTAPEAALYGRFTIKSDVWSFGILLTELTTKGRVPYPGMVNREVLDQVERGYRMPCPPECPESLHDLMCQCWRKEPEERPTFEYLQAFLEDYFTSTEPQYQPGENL
T9 sequence (P10721 26-976 A829P): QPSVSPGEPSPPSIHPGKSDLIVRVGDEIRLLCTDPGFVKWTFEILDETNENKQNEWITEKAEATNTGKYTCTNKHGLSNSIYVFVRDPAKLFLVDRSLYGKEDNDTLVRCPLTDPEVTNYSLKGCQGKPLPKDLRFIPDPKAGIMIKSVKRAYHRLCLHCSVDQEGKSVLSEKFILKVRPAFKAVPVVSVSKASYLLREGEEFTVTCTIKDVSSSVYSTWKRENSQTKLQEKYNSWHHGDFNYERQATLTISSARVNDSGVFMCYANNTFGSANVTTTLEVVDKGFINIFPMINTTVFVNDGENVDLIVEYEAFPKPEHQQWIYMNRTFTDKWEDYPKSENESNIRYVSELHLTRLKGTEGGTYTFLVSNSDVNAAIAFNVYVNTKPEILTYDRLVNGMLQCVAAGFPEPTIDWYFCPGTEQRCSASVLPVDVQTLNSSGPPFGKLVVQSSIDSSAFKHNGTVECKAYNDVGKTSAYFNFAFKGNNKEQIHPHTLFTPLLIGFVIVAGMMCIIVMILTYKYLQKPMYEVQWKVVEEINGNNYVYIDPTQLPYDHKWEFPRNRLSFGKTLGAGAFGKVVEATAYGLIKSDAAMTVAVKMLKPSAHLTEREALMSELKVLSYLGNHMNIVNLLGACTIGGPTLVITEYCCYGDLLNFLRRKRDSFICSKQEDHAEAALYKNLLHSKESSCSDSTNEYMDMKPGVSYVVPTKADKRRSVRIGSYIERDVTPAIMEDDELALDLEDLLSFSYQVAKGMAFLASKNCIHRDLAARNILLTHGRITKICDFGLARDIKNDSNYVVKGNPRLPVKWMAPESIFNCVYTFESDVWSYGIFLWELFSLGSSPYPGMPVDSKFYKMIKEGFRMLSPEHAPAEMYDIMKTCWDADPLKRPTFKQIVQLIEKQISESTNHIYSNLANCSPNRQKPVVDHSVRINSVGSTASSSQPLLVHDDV

CCc1ccc2c(c1)C1(NN=C(c3cccc4ccccc34)S1)C(=O)N2 (stereo not shown) [OGM1, 5-ethyl-5′-naphthalen-1-ylspiro[1H-indole-3,2′-3H-1,3,4-thiadiazole]-2-one]
remaining binding at 10 µM [1]: 83%
remaining binding at 10 µM [2]: 84%
remaining binding at 10 µM (BIKE): 88%
remaining binding at 10 µM (CAMKK1): 86%
remaining binding at 10 µM (CDK3): 81%
remaining binding at 10 µM (CSNK1G3): 100%
remaining binding at 10 µM (DAPK3): 91%
remaining binding at 10 µM (DMPK2): 93%
remaining binding at 10 µM (FLT3(D835H)): 100%
remaining binding at 10 µM (KIT(A829P)): 72%
remaining binding at 10 µM (MEK1): 84%
remaining binding at 10 µM (MEK5): 92%
remaining binding at 10 µM (PKAC-beta): 96%
remaining binding at 10 µM (SRC): 95%
Antagonism (APJ; 10 uM): 7.7
Agonism (APJ; 12.5 uM): 0.9
Antagonism (S1P3; 10 uM): −3.7
Agonism (S1P3; 12.5 uM): 0.2

CCc1ccc2c(c1)C1(NN=C(c3ccccc3)S1)C(=O)N2 (stereo not shown) [OGM2]
acid-induced SRE-luciferase activity (GPR4): not inhibited
lipid peroxidation (HEK293): did not induce lipid peroxidation
migration out of agarose drop (WM115): migrated significantly less than the vehicle treated cells
mitochondrial membrane potential (TMRM) (U87): decreased mitochondrial membrane potential
